The results in this text go back to patent US9416154B2, “5′-substituted nucleoside derivatives and methods of use thereof for the treatment of viral diseases” (priority 2011, dated 2016).

Data set [1] has as its target HCV NS5B RNA-dependent RNA polymerase (1b-BKΔ55) (Hepatitis C virus genotype 1b (isolate BK) (HCV), UniProt P26663). Put plainly: HCV NS5B polymerase inhibition assay (radiolabeled nucleotide incorporation). As to conditions: 5 nM NS5B (1b-BKΔ55), [33P]-CTP incorporation, room temperature 1 hour. Format: biochemical. The procedure:
The ability of the nucleoside triphosphate derivatives to inhibit the enzymatic activity of the HCV NS5B RNA-dependent RNA polymerase was measured in a radiolabeled nucleotide incorporation assay modified from the method described in International Publication No. WO2002/057287. Briefly, 50 μL reactions containing 20 mM HEPES (pH 7.3), 7.5 mM DTT, 20 units/mL RNasIN, 1 μM each of ATP, GTP, UTP and CTP, 20 μCi/mL [^33P]-CTP, 10 mM MgCl2, 60 mM NaCl, 100 μg/ml BSA, 0.021 μM DCoH heteropolymer RNA template and 5 nM NS5B (1b-BKΔ55) enzyme were incubated at room temperature for 1 hour. Assay was terminated by the addition of 500 mM EDTA (50 μL). The reaction mixture was transferred to a Millipore DE81 filter plate and the incorporation of labeled CTP was determined using Packard TopCount. Compound IC50 values were calculated from experiments with 10 serial 3-fold dilutions of the inhibitor in duplicate.

Data set [2] concerns Huh 7 hepatoma cells containing the subgenomic HCV replicon. Put plainly: Cytotoxicity (MTS assay or GAPDH RNA readout). Format: cell-based. The procedure:
The effect of the nucleoside derivatives on the proliferation and metabolism of Huh 7 hepatoma cells containing the subgenomic HCV replicon was measured using the MTS assay. Briefly, cells were seeded and dosed with compounds exactly as described in Example 13 above, for replicon EC50 determination. After a 3-day compound incubation period, the MTS assay was performed in accordance with the manufacturer's protocol for the CellTiter 96 Aqueous One Solution Cell Proliferation Assay (Promega, Catalog #G358). Alternatively, after a 3-day compound incubation, the amount of glyceraldehyde-3-phosphate dehydrogenase (GAPDH) RNA in replicon-containing Huh 7 cells was determined using qRT-PCR. CC50 values were derived from 10 serial 2-fold dilutions of the inhibitor in duplicate that yielded 50% inhibition of the MTS or GAPDH RNA readout by comparison with cells treated with vehicle control.
(Tetrazolium dyes change colour on reduction, which living cells bring about.)

For a further data set, the system named is HCV replicon (1b). Put plainly: Cell-based HCV replicon assay. The procedure:
To measure cell-based anti-HCV activity of selected compounds of the present invention, replicon cells were seeded at 5000 cells/well in 96-well collagen I-coated Nunc plates in the presence of the test compound. Various concentrations of test compound, typically in 10 serial 2-fold dilutions, were added to the assay mixture, with the starting concentration ranging from 250 μM to 1 μM. The final concentration of dimethylsulfoxide was 0.5%, fetal bovine serum was 5%, in the assay media. Cells were harvested on day 3 by the addition of 1× cell lysis buffer (Ambion cat #8721). The replicon RNA level was measured using real time PCR (Taqman assay). The amplicon was located in 5B. The PCR primers were: 5B.2F, ATGGACAGGCGCCCTGA (SEQ ID. NO. 1); 5B.2R, […] (SEQ ID. NO. 2); the probe sequence was FAM-labeled CACGCCATGCGCTGCGG (SEQ ID. NO. 3). GAPDH RNA was used as endogenous control and was amplified in the same reaction as NS5B (multiplex PCR) using primers and VIC-labeled probe recommended by the manufacturer (PE Applied Biosystem). The real-time RT-PCR reactions were run on ABI PRISM 7900HT Sequence Detection System using the following program: 48° C. for 30 minutes, 95° C. for 10 minutes, 40 cycles of 95° C. for 15 sec, 60° C. for 1 minute. The ΔCT values (CT5B-CTGAPDH) were plotted against the concentration of test compound and fitted to the sigmoid dose-response model using XLfit4 (MDL). EC50 was defined as the concentration of inhibitor necessary to achieve ΔCT=1 over the projected baseline; EC90 the concentration necessary to achieve ΔCT=3.2 over the baseline. Alternatively, to quantitate the absolute amount of replicon RNA, a standard curve was established by including serially diluted T7 transcripts of replicon RNA in the Taqman assay. All Taqman reagents were from PE Applied Biosystems. Such an assay procedure was described in detail in e.g. Malcolm et al., Antimicrobial Agents and Chemotherapy 50: 1013-1020 (2006).

The mark [3] stands for this setting: replicon-containing Huh 7 cells, 3-day incubation, MTS or GAPDH RNA readout, read-out: 1b CC50.
[4] abbreviates: replicon cells, 3-day incubation, replicon RNA by real time PCR (Taqman); read-out: 1b EC50.

Read-outs that look alike come from different tables or passages of the source.

Chain of HCV NS5B RNA-dependent RNA polymerase (1b-BKΔ55) (P26663 2420-2955): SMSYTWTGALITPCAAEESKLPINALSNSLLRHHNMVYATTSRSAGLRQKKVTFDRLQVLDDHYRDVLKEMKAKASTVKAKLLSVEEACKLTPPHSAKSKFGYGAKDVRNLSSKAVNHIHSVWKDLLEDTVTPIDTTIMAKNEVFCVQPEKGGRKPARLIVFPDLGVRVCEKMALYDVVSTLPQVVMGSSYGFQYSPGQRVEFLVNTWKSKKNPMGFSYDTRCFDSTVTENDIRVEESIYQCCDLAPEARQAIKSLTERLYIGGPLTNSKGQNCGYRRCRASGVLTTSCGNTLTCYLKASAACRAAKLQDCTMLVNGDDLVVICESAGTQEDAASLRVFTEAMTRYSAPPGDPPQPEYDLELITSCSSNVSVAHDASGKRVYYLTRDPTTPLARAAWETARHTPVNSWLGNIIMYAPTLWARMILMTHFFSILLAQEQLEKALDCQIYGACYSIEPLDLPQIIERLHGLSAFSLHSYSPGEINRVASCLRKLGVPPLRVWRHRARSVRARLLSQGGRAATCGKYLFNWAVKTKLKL

As to `CC(OP(=O)(O)OP(=O)(O)OP(=O)(O)O)[C@H]1O[C@@H](n2ccc3c(N)ncnc32)[C@](C)(F)[C@@H]1O` (some centres unmarked) [Compound 15], the IC50 (usually the concentration that gives 50% inhibition) in data set [1] was more than 20 µM.
In the case of `C[C@H](O)C1O[C@@H](n2cc(F)c3c(N)ncnc32)[C@](C)(F)[C@@H]1O` (some centres unmarked) [Compound 25], the CC50 (usually the concentration that lowers cell viability or growth by half) in data set [2] (setting [3]) is more than 100 µM. Also, the EC50 (in general, the concentration giving half of the maximal effect) in the data set on HCV replicon (1b) (setting [4]) is more than 100 µM.
For `C[C@@H](O)C1O[C@@H](n2cc(F)c3c(N)ncnc32)[C@](C)(F)[C@@H]1O` (some centres unmarked) [Compound 26], in data set [2], the CC50 is more than 100 µM. In addition, the EC50 in the data set on HCV replicon (1b) (setting [4]) is more than 100 µM.
Turning to `C[C@@H](O)C1O[C@@H](n2ccc3c(N)ncnc32)[C@](C)(O)[C@@H]1O` (some centres unmarked) [Compound 27], the CC50 in data set [2] (setting [3]) was more than 100 µM. Besides, the EC50 in the data set with HCV replicon (1b) (setting [4]) was more than 100 µM.
As to `C[C@H](O)C1O[C@@H](n2ccc3c(N)ncnc32)[C@](C)(O)[C@@H]1O` (some centres unmarked) [Compound 28], the CC50 in data set [2] was more than 100 µM. Further, the EC50 in the data set with HCV replicon (1b) (setting [4]) is more than 100 µM.
In data set [2], `CC(C)(O)[C@H]1O[C@@H](n2ccc3c(N)ncnc32)[C@](C)(F)[C@@H]1O` [Compound 30] returned a CC50 of more than 100 µM. Further, the 50% effective concentration (EC50) with HCV replicon (1b) (setting [4]) is more than 100 µM.
Consider `CC(C)(O)[C@H]1O[C@@H](n2ccc3c(N)ncnc32)[C@](C)(O)[C@@H]1O` [Compound 31], for which the CC50 in data set [2] was more than 100 µM. For the same molecule, in the data set on HCV replicon (1b) (setting [4]), the EC50 is more than 100 µM.
`C[C@@H](OP(=O)(O)OP(=O)(O)OP(=O)(O)O)[C@H]1O[C@@H](n2ccc3c(N)ncnc32)[C@](C)(O)[C@@H]1O` [Compound 36]: the IC50 in data set [1] came out at 65 µM. This lies in the double-digit micromolar range.
On the same count and under the same terms, next, `C[C@H](OP(=O)(O)OP(=O)(O)OP(=O)(O)O)[C@H]1O[C@@H](n2ccc3c(N)ncnc32)[C@](C)(O)[C@@H]1O` [Compound 37]: 40 µM.
In the case of `CCCCOC(=O)[C@H](C)NP(=O)(Oc1cccc2ccccc12)OC(C)[C@H]1O[C@@H](n2ccc3c(N)ncnc32)[C@](C)(O)[C@@H]1O` (some centres unmarked) [Compound 45], the CC50 in data set [2] (setting [3]) was more than 100 µM. The EC50 in the data set with HCV replicon (1b) (read-out: 1b EC50; replicon cells, 3-day incubation, replicon RNA by real time PCR (Taqman)) is 22 µM.
